Converted amounts (≈) assume the structure as drawn. Structures can show the parent of a compound that is named as a salt.
What was measured:
[1] = Solubility according to Japanese Pharmacopoeia general notices, analyzed by HPLC; assay type: physicochemical; details: thermodynamic from solid, treated according to Japanese Pharmacopoeia
Procedure: The compounds of Examples 9, 12 and 15 were measured and placed in a glass container by 1 mg each, saline was added in small portions, and the mixture was stirred. The solubility was visually observed. In addition, as a conventional compound having a nitric oxide (NO) production inhibitory effect and an inflammatory cytokine production inhibitory effect, ethyl 6-[N-(2-chloro-4-fluorophenyl)sulfamoyl]cyclohex-1-ene-1-carboxylate (indicated as conventional compound in Table 1) was treated according to the Japanese Pharmacopoeia, general notices, and analyzed by HPLC to determined the solubility.

[2] = tested on: Female BALB/c mice inoculated with LPS; experiment: Evaluation of efficacy in mouse endotoxin shock model; assay type: in vivo; details: 10 mg/kg intravenously in saline, 1 hr before LPS 5 mg/kg intraperitoneally; survival at 5 days from LPS inoculation; 7 mice per group
Procedure: Female BALB/c mice (6-week-old) were purchased and, after preliminary rearing for 1 week, divided into groups (7 per group). The compound of Example 3 was dissolved in saline immediately before administration, and intravenously administered at 10 mg/kg. For the control group, a solvent was administered in the same manner. One hour later, LPS (5 mg/kg) was intraperitoneally inoculated, and the survival of the mice was observed. The efficacy was evaluated based on the survival rate at 5 days from LPS inoculation.

physchem = details: saline, saline or isotonic

solubility (physchem) [µg/mL]	Compound	other results
	CCOC(=O)C1=CCCCC1S(=O)(=O)Nc1ccc(F)cc1Cl (stereo not shown) [Conventional compound, ethyl 6-[N-(2-chloro-4-fluorophenyl)sulfamoyl]cyclohex-1-ene-1-carboxylate]	solubility [1]: 10 µg/mL (≈ 27.6 µM)
	CCOC(=O)C1=CCCCC1S(=O)(=O)N(COC(=O)OCCCC(=O)O)c1ccc(F)cc1Cl (stereo not shown) [Example 3, sodium 4-({[((2-chloro-4-fluorophenyl){[2-(ethoxycarbonyl)cyclohex-2-en-1-yl]sulfonyl}amino)methoxy]carbonyl}oxy)butanoate]	number of survived mice (N = 7) [2]: 6
≥ 1000	CCOC(=O)C1=CCCCC1S(=O)(=O)N(Cc1cc(C)c(OC(=O)CNC)c(C)c1)c1ccc(F)cc1Cl (stereo not shown) [Example 21, ethyl 6-[((2-chloro-4-fluorophenyl){3,5-dimethyl-4-[(N-methylglycyl)oxy]benzyl}amino)sulfonyl]cyclohex-1-ene-1-carboxylate hydrochloride]	
≥ 1000	CCOC(=O)C1=CCCCC1S(=O)(=O)N(Cc1cc(C)c(OC(=O)[C@@H]2CCCN2)c(C)c1)c1ccc(F)cc1Cl (stereo partly drawn) [Example 23, 4-[((2-chloro-4-fluorophenyl){[2-(ethoxycarbonyl)cyclohex-2-en-1-yl]sulfonyl}amino)methyl]-2,6-dimethylphenyl L-prolinate]	
